According to patent US9844575B2, “Pharmaceutical composition and functional food comprising natural extracts for preventing or treating diabetic complications or angiodema” (KOREA INSTITUTE OF ORIENTAL MEDICINE, priority 2013, dated 2017):
Structures can show the parent of a compound that is named as a salt.

Assays:
[1] = test system: advanced glycation endproducts (AGE); experiment: Inhibitory effect against formation of advanced glycation endproducts (BSA + fructose/glucose, 7 days, fluorescence); type: biochemical
Description: Experiments were performed to examine the inhibitory effects of each of the compositions prepared in Example 1 and Example 2 against the formation of advanced glycation endproducts.
Bovine serum albumin (BSA), a protein source, was prepared by mixing into a phosphate buffer solution. As a sugar source, a mixed solution between 0.2 M fructose and 0.2 M glucose was used. Each of the compositions prepared in Example 1 and Example 2, and aminoguanidine (positive control) were respectively added into a mixed solution between BSA and a sugar, and cultured for 7 days. After culturing, the content of the resulting advanced glycation endproducts was analyzed. The amount of the advanced glycation endproducts was calculated based on the Equation 1 below using a Microplate reader (Excitation; 350 nm, Emission; 450 nm) (Table 1). Inhibitory effect of AGE (%)={100−(fluorescence intensity of a sample)−(fluorescence intensity of a blank sample)/(fluorescence intensity of a control)−(fluorescence intensity of a blank control)}×100 [Equation 1]

[2] = test system: vascular endothelial growth factor (VEGF); experiment: Immunohistochemical staining: formation of VEGF in retina of db/db mice; type: in vivo; conditions: oral once daily 12 weeks; COPH 25 and 50 mg/kg; MET 350 mg/kg; COPH 50 + MET 350 mg/kg
From the text: VEGF induces neovascularization and increases permeability of blood vessels. Additionally, VEGF also induces the formation of substrate-degradative proteins.

| IC50 ([1]; AGE formation, BSA + 0.2 M fructose/0.2 M glucose, 7 days) | Compound | Inhibitory effect (%) ([1]; Conc. 55.5 μg/mL) | Inhibitory effect (%) ([1]; Conc. 74.8 μg/mL) | Inhibitory effect (%) ([1]; Conc. 92.5 μg/mL) | expression of VEGF within retinal tissue (FIG. 9) [2] |
| --- | --- | --- | --- | --- | --- |
| 76.47 ± 4.81 µg/mL | N=C(N)NN [Aminoguanidine HCl] | 43.92 ± 0.37% | 50.86 ± 2.17% | 54.91 ± 0.75% |  |
|  | CN(C)C(=N)N=C(N)N [MET, metformin] |  |  |  | significantly inhibited the expression of VEGF |
